For test [1], the target named is H2-D^d MHC-I molecule (Mus musculus, UniProt P01900). As to the kind of experiment: Peptide induction of surface H2-D^d expression on RMAS-D^d cells. The test is classed as cell-based. The settings on record: fluorescence index, ANOVA, compared with s.p.VV10, Fig 4c.
Test [2] deals with H2-D^d MHC-I molecule on RMAS-D^d cells (mouse). As to the kind of experiment: flow cytometry on cells. Background: In flow cytometry, cells or beads pass a laser one at a time.

This is an account of results in PMC5890335 (Journal of immunology (Baltimore, Md. : 1950), 2018).

Sequence of H2-D^d MHC-I molecule on RMAS-D^d cells (mouse) (P01900 25-365): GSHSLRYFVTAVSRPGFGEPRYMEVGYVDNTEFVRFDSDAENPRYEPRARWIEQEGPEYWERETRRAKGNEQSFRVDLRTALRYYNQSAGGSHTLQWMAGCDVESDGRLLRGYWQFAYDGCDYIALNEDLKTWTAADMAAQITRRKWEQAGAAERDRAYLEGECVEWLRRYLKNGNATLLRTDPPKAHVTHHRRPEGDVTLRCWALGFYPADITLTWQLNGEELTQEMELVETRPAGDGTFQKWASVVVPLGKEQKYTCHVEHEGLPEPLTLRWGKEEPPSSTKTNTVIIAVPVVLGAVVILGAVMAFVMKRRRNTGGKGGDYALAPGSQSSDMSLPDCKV
Sequence of H2-D^d MHC-I molecule (P01900 whole entry, looked up): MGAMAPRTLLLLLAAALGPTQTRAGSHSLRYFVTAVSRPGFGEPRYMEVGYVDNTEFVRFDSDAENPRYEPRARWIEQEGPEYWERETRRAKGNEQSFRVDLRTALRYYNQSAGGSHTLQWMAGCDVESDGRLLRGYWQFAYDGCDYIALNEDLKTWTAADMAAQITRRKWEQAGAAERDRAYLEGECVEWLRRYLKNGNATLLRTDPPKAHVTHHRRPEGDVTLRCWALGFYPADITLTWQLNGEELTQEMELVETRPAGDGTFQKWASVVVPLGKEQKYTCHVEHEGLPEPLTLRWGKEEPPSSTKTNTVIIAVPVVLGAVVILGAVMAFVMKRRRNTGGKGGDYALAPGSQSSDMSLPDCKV

Turning to IGPGRAFYT [s.p.T9], the “comparison of H2-D^d binding titration curves of the 9-mer peptides” value in test [1] is “do not differ from each other”.
In the case of IGPGRAFYV [s.p.V9], in test [1], the “comparison of H2-D^d binding titration curves of the 9-mer peptides” value is listed as “do not differ from each other”.
In test [2], “s.p.TT10 (…), minimal V3 epitope of HIV-1MN gp120, gp120 314-323 (peptide)” showed an FI0.5 (peptide concentration giving a 50% increase in H2-D^d surface expression) of 1 µg/mL.

B1: s.p.VV10 (…) (peptide)
peptide: IGPGRAFYVV
In turn, B1 displayed an FI0.5 (peptide concentration giving a 50% increase in H2-D^d surface expression) in test [2] of 1 µg/mL.
